According to ChEMBL document CHEMBL1128380, “Antimalarial activity of novel ring-contracted artemisinin derivatives” (1995):

Columns and labels:
Format in all cases: functional
[1] = tested on: Mus musculus; assay: Antimalarial activity was determined by blood schizonticidal activity in mice (Mus musculus) infected with Plasmodium berghei K173 at 5 (mg/kg x5) subcutaneous dosage; Cured/treated = 4/6 on day 7
[2] = tested on: Mus musculus; assay: Antimalarial activity was determined by blood schizonticidal activity in mice (Mus musculus) infected with Plasmodium berghei K173 at 10 (mg/kgx5) subcutaneous dosage; Cured/treated = 0/6 on day 7
[3] = tested on: Mus musculus; assay: Antimalarial activity was determined by Blood schizonticidal activity in mice (Mus musculus) infected with Plasmodium berghei K173 at 25 (mg/kgx5) subcutaneous dosage; Cured/treated = 4/4
[4] = tested on: Mus musculus; assay: Antimalarial activity was determined by Blood schizonticidal activity in mice (Mus musculus) infected with Plasmodium berghei NS at 5 (mg/kg x5) subcutaneous dosage; Cured/treated = 10/10
[5] = tested on: Mus musculus; assay: Antimalarial activity was determined by blood schizonticidal activity in mice (Mus musculus) infected with Plasmodium berghei K173 at 25 (mg/kgx5) peroral dosage; Cured/treated = 0/6
[6] = tested on: Mus musculus; assay: Antimalarial activity was determined by Blood schizonticidal activity in mice (Mus musculus) infected with Plasmodium berghei K173 at 2.5 (mg/kgx5) subcutaneous dosage; Cured/treated = 0/6 on day 7
[7] = tested on: Mus musculus; assay: Antimalarial activity was determined by Blood schizonticidal activity in mice (Mus musculus) infected with Plasmodium berghei NS at 7.5 (mg/kg x5) peroral dosage; Cured/treated = 8/8
[8] = tested on: Mus musculus; assay: Antimalarial activity was determined by Blood schizonticidal activity in mice (Mus musculus) infected with Plasmodium berghei K173 at 0.625 (mg/kg x5) subcutaneous dosage; Cured/treated = 14/19 on day 7
[9] = tested on: Mus musculus; assay: Antimalarial activity was determined by Blood schizonticidal activity in mice (Mus musculus) infected with Plasmodium berghei K173 at 25 (mg/kgx5) peroral dosage; Cured/treated = 10/12 on day 7
[10] = tested on: Mus musculus; assay: Antimalarial activity was determined by blood schizonticidal activity in mice (Mus musculus) infected with Plasmodium berghei K173 at 10 (mg/kgx5) peroral dosage; Cured/treated = 0/6 on day 7
[11] = tested on: Mus musculus; assay: Antimalarial activity was determined by Blood schizonticidal activity in mice (Mus musculus) infected with Plasmodium berghei NS at 25 (mg/kgx5) peroral dosage; Cured/treated = 0/6
[12] = tested on: Mus musculus; assay: Antimalarial activity was determined by Blood schizonticidal activity in mice (Mus musculus) infected with Plasmodium berghei K173 at 20 (mg/kg x5) peroral dosage; Cured/treated = 4/12 on day 7
[13] = tested on: Mus musculus; assay: Antimalarial activity was determined by Blood schizonticidal activity in mice (Mus musculus) infected with Plasmodium berghei NS at 2.5 (mg/kgx5) subcutaneous dosage; Cured/treated = 11/14
[14] = tested on: Mus musculus; assay: Antimalarial activity was determined by blood schizonticidal activity in mice (Mus musculus) infected with Plasmodium berghei NS at 5 (mg/kg x5) subcutaneous dosage; Cured/treated = 19/20 on day 7
[15] = tested on: Mus musculus; assay: Antimalarial activity was determined by Blood schizonticidal activity in mice (Mus musculus) infected with Plasmodium berghei K173 at 1.25 (mg/kgx5) subcutaneous dosage; Cured/treated = 30/30 on day 7
[16] = tested on: Mus musculus; assay: Antimalarial activity was determined by blood schizonticidal activity in mice (Mus musculus) infected with Plasmodium berghei K173 at 25 (mg/kgx5) peroral dosage; Cured/treated = 6/6 on day 7
[17] = tested on: Mus musculus; assay: Antimalarial activity was determined by blood schizonticidal activity in mice (Mus musculus) infected with Plasmodium berghei NS at 12.5 (mg/kg x5) peroral dosage; Cured/treated = 2/6
[18] = tested on: Mus musculus; assay: Antimalarial activity was determined by Blood schizonticidal activity in mice (Mus musculus) infected with Plasmodium berghei K173 at 0.625 (mg/kg x5) subcutaneous dosage; Cured/treated = 6/6 on day 7
[19] = tested on: Mus musculus; assay: Antimalarial activity was determined by Blood schizonticidal activity in mice (Mus musculus) infected with Plasmodium berghei K173 at 12.5 (mg/kg x5) peroral dosage; Cured/treated = 3/6 on day 7
[20] = tested on: Mus musculus; assay: Antimalarial activity was determined by Blood schizonticidal activity in mice (Mus musculus) infected with Plasmodium berghei NS at 25 (mg/kgx5) peroral dosage; Cured/treated = 6/6
[21] = tested on: Mus musculus; assay: Antimalarial activity was determined by Blood schizonticidal activity in mice (Mus musculus) infected with Plasmodium berghei NS at 2.5 (mg/kgx5) subcutaneous dosage; Cured/treated = 6/6
[22] = tested on: Mus musculus; assay: Antimalarial activity was determined by blood schizonticidal activity in mice (Mus musculus) infected with Plasmodium berghei NS at 25 (mg/kgx5) peroral dosage; Cured/treated = 7/12 on day 7
[23] = tested on: Mus musculus; assay: Antimalarial activity was determined by blood schizonticidal activity in mice (Mus musculus) infected with Plasmodium berghei K173 at 1.25 (mg/kgx5) subcutaneous dosage; Cured/treated = 23/35 on day 7
[24] = tested on: Mus musculus; assay: Antimalarial activity was determined by Blood schizonticidal activity in mice (Mus musculus) infected with Plasmodium berghei K173 at 20 (mg/kg x5) peroral dosage; Cured/treated = 34/34
[25] = tested on: Mus musculus; assay: Antimalarial activity was determined by blood schizonticidal activity in mice (Mus musculus) infected with Plasmodium berghei NS at 5 (mg/kg x5) subcutaneous dosage; Cured/treated = 16/18 on day 7
[26] = tested on: Mus musculus; assay: Antimalarial activity was determined by Blood schizonticidal activity in mice (Mus musculus) infected with Plasmodium berghei K173 at 2.5 (mg/kgx5) subcutaneous dosage; Cured/treated = 36/36

## C[C@@H]1CC[C@@H]2[C@]34OO[C@@](C)(CCC13)O[C@H]4O[C@]2(C)C(=O)NCc1ccc(C(F)(F)F)cc1 (stereo partly specified)
[1]
  Cured/treated: 4

## C[C@@H]1CCC2[C@]34OOC(C)(CCC13)O[C@H]4O[C@]2(C)C=O (single isomer, unassigned)
[2]
  Cured/treated: 0
[3]
  Cured/treated: 4

## C=CCOC[C@@]1(C)O[C@@H]2OC3(C)CCC4[C@H](C)CC[C@@H]1[C@]42OO3 (single isomer, unassigned)
[4]
  Cured/treated: 10
[5]
  Cured/treated: 0
[6]
  Cured/treated: 0

## C[C@H]1[C@@H](OC[C@]2(C)OC3OC4(C)CCC5[C@@H](C)CCC2[C@]35OO4)O[C@@H]2OC3(C)CCC4[C@H](C)CC[C@@H]1[C@]42OO3 (single isomer, unassigned)
[7]
  Cured/treated: 8
[8]
  Cured/treated: 14
[9]
  Cured/treated: 10
[10]
  Cured/treated: 0
[11]
  Cured/treated: 0
[12]
  Cured/treated: 4
[13]
  Cured/treated: 11
[14]
  Cured/treated: 19
[15]
  Cured/treated: 30

## C[C@H]1[C@H](OC[C@]2(C)OC3OC4(C)CCC5[C@@H](C)CCC2[C@]35OO4)O[C@@H]2OC3(C)CCC4[C@H](C)CC[C@@H]1[C@]42OO3 (single isomer, unassigned)
[16]
  Cured/treated: 6
[17]
  Cured/treated: 2
[18]
  Cured/treated: 6
[19]
  Cured/treated: 3
[20]
  Cured/treated: 6
[21]
  Cured/treated: 6

## CCO[C@H]1O[C@@H]2O[C@@]3(C)CC[C@H]4[C@H](C)CC[C@@H]([C@H]1C)[C@@]24OO3 [ARTEMOTIL]
[22]
  Cured/treated: 7
[23]
  Cured/treated: 23
[24]
  Cured/treated: 34
[25]
  Cured/treated: 16
[26]
  Cured/treated: 36
